Tests used:
ARPE19 cells = test: Cell viability assay (AlamarBlue) of ARPE19 cells treated with A2E lots, with or without inhibitors; assay type: cell-based; conditions: RPE cells, 24 hours in the dark
Description: ARPE19 cells from ATCC were plated at 80% confluency in 96-well plates and pre-treated for 1 hour with inhibitors (33 μM Necrostatin 7 (Cayman Chemicals): 2 mM N-acetyl-cysteine (NAC) (Sigma): 50 μg/ml phoroglucinol (Sigma)), after which the medium was supplemented with A2E/ATRD or vehicle (control) and cells were incubated in serum-free OptiMEM (Invitrogen) medium for an additional 23 hours at 37° C. To assess viability, 20 μL of 10× AlamarBlue® (Invitrogen) were added per well, and cells were incubated for an additional hour before reading the fluorescence in SpectraMax M5e (Molecular Devices, CA, USA) using 555 nm excitation/585 nm emission.

[1] = HPLC analysis, cited from earlier work

CC(C=CC1=C(C)CCCC1(C)C)=CC=CC(C)=Cc1cc(C=CC=C(C)C=CC2=C(C)CCCC2(C)C)cc[n+]1CCO [A2E #1, N-retinylidene-N-retinylethanolamine]
protection from A2E-induced toxicity by antioxidants (NAC) (ARPE19 cells; pre-treated with 2 mM N-acetyl-cysteine): partially protected by antioxidants (NAC)

CC(C=CC1=C(C)CCCC1(C)C)=CC=CC(C)=Cc1cc(C=CC=C(C)C=CC2=C(C)CCCC2(C)C)cc[n+]1CCO [A2E #3, N-retinylidene-N-retinylethanolamine]
neutralization of A2E toxicity by necroptosis inhibitor Nec7 (ARPE19 cells; pre-treated with 33 μM Necrostatin 7): better neutralized with the necroptosis inhibitor, Nec7

CC(C=CC1=C(C)CCCC1(C)C)=CC=CC(C)=Cc1cc(C=CC=C(C)C=CC2=C(C)CCCC2(C)C)cc[n+]1CCO [A2E, N-retinylidene-N-retinylethanolamine]
stability in THF, CHCl3 or EtOH ([1]; solvents THF, CHCl3 or EtOH): not stable | stability in methanol and DMSO ([1]; solvents methanol and DMSO): stable

— US20250034094A1, “A FAST AND EFFICIENT PROCESS FOR THE PREPARATION OF N-RETINYLIDENE-N-RETINYLETHANOLAMINE (A2E)” (Purdue Research Foundation, priority 2021, published 2025)
